Where a name gives a salt, the structure may show the parent alone.
These compounds were tested against T1, human GnRH receptor (Homo sapiens, UniProt P30968) (assay: Test of in vitro GnRH receptor antagonism: 125I-D-Trp6-LHRH binding inhibition). Conditions: inhibition of 0.1 nM 125I-D-Trp6-LHRH binding; membrane fractions of CHO cells expressing human GnRH receptor; 4° C. for 3 hours; read-out: IC50 value (concentration at which PMB equals 50%).
T1 construct: expressed in transfected cells; membrane fraction
T1 sequence (P30968 1-328): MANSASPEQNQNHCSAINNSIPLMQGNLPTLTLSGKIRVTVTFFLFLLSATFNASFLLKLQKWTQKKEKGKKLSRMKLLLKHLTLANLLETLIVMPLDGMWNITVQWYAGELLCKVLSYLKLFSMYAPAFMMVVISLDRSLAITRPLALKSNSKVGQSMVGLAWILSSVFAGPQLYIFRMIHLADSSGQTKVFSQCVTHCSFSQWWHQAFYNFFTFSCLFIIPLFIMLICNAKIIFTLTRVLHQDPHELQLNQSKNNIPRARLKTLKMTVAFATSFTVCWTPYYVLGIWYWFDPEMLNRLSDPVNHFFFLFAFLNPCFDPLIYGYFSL
Protocol: In the following, in vitro GnRH receptor antagonistic effect of the pharmaceutical drugs and compounds of the invention was evaluated by inhibition of binding of ^125I-D-Trp^6-LHRH to human GnRH receptor.
1. Test of In Vitro GnRH Receptor Antagonism
(1) Preparation of Human GnRH Receptor-Expressing CHO (Chinese Hamster Ovary) Cells
Expression of human […] was carried out in a similar manner to a common method for protein expression (Chapter 9 In: Current Protocols In Molecular Biology: ed. by F. M. Ausubel et al., Greene Publishing Associates and Wiley-Interscience, 9.0.1-9.9.6 (1987), S. S. Kaker et al., Biol. Biophys. Res. Commun. 189, 289-295 (1992), R. Grosse et al., Mol. Endocrinol. 11, 1305-1318 (1997)). CHO cells were cultured (medium: αMEM, 10% FCS, containing an antibiotic-antimycotic agent) with an expression vector which has human GnRH receptor gene (SEQ ID No.: 1) and a transfection reagent FuGENE6 (manufactured by Boehringer-Mannheim) for 24 hours for transfection, whereby the CHO cells stably expressing human GnRH receptor (SEQ ID No.: 2, S. S. Kaker et al., Biol. Biophys. Res. Commun, 189, 289-295 (1992)) were obtained. The expression of the aimed receptor was confirmed by PCR method.
(2) Preparation of CHO Cell Membrane Fraction Containing Human GnRH Receptor
The CHO cells expressing the human GnRH receptor (3×10^8 cells), prepared in the above (1), were suspended in phosphate buffered saline (PBS) and centrifuged for 3 minutes at 100×G. The pellet suspended in 100 ml of a homogenate buffer (10 mM NaHCO3, 5 mM EDTA (ethylenediaminetetraacetic acid), pH 7.5) was homogenized using a Polytron homogenizer. After the resulting homogenate was centrifuged for 15 minutes at 400×G, the supernatant was centrifuged for 1 hour at 100,000×G. The membrane fraction obtained as a pellet was suspended in 60 ml of storage buffer (25 mM Tris-HCl, 1 mM EDTA, 10 μg/ml a protease inhibitor (Pefabloc SC (manufactured by Merck)), 1 μg/ml pepstatin A, 20 μg/ml leupeptin, 0.03% sodium azide, pH 7.5), and stored at −80° C. until use. […]
The membrane fractions of CHO cells expressing the human GnRH receptor which were prepared in the above (2) were diluted with assay buffer (HBSS (Hanks balanced salt solution), 20 mM HEPES, 0.1% BSA (bovine serum albumin), 100 μg/ml bacitracin, pH 7.4) so as to be 20 μg/tube, and were dispensed into tubes in an amount of 148 μl. […] The filters were washed three times with 1 ml of assay buffer and the radioactivity on the filter was measured using a γ-counter. Binding inhibition (%) (PMB) of each test compound at various concentrations were determined according to the following equation: PMB=(SB−NSB)/(TB−NSB)×100 (wherein TB: total binding radioactivity, SB: radioactivity when a test compound was added, NSB: non-specific binding radioactivity). […]

For O=C(C(C(=O)c1cccc(NCc2c[nH]cn2)c1)=C1Nc2ccccc2N1)c1cc(F)cc(F)c1 [Example 83, 1-(3,5-difluorophenyl)-2-(1,3-dihydro-2H-benzimidazol-2-ylidene)-3-{3-[(1H-imidazol-4-ylmethyl)amino]phenyl}propane-1,3-dione hydrochloride], which IC50 is on record?
The IC50 was 0.1 to 1 nM.

How did the IC50 turn out when O=C(C(C(=O)c1cccc(CNCCc2ccncc2)c1)=C1Nc2ccccc2N1)c1ccccc1 [Example 79, 2-(1,3-dihydro-2H-benzimidazol-2-ylidene)-1-phenyl-3-(3-{[(2-pyridin-4-ylethyl)amino]methyl}phenyl)propane-1,3-dione hydrochloride] was run?
Its IC50 is 0.1 to 1 nM.

Which IC50 does the source give for Nc1cccc(C(=O)C(C(=O)c2cc(F)cc(F)c2)=C2Nc3ccccc3N2)c1 [Example 40, 1-(3-aminophenyl)-3-(3,5-difluorophenyl)-2-(1,3-dihydro-2H-benzimidazol-2-ylidene)propane-1,3-dione hydrochloride] here?
Its IC50 is 0.1 to 1 nM.

Which IC50 does the source give for O=C(C(C(=O)c1cc(F)cc(F)c1)=C1Nc2ccc(OCc3cccnc3)cc2N1)c1ccccc1 [Example 402, 1-(3,5-difluorophenyl)-2-[5-(pyridin-3-ylmethoxy)-1,3-dihydro-2H-benzimidazol-2-ylidene]-3-phenylpropane-1,3-dione oxalate] here?
The IC50 was 0.1 to 1 nM.
